Measured values from article PMC5266331, “Novel PARP-1 Inhibitor Scaffolds Disclosed by a Dynamic Structure-Based Pharmacophore Approach” (PLoS ONE, 2017).

Target: T1, PARP-1 (Homo sapiens, UniProt P09874)
T1 construct: gene PARP1
Experiment: HT Universal Colorimetric PARP Assay kit (histone-coated wells, biotinylated poly(ADP-ribose))
Type: biochemical

T1 sequence (P09874 2-1014): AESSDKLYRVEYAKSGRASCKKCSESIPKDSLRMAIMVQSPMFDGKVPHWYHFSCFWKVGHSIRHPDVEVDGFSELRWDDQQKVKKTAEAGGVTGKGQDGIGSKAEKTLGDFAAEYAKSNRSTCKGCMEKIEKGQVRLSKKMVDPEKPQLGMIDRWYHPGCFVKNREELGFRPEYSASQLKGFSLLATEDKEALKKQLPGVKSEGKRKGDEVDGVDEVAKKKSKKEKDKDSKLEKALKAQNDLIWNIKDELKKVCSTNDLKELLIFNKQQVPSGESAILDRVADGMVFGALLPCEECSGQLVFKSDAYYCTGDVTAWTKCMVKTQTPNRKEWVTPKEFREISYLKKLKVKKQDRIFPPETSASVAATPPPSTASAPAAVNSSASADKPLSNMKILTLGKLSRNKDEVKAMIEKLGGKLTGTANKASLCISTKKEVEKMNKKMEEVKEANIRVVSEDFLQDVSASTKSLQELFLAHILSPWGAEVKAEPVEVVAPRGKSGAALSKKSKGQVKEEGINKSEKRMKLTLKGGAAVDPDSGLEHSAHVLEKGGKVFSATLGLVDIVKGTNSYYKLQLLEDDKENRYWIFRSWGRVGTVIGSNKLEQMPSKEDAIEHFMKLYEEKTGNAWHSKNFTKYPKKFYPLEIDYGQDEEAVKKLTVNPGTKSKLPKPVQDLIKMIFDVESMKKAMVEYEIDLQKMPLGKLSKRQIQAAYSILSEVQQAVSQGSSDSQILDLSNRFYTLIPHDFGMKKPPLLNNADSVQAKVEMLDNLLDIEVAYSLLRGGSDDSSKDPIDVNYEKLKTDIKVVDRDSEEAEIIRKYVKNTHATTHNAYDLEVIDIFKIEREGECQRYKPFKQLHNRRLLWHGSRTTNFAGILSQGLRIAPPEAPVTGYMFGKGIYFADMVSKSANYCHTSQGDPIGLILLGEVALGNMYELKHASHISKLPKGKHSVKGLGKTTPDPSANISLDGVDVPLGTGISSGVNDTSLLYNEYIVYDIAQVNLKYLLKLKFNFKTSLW

Compound: COc1ccc2c(c1O)CNCC2c1ccc(O)c(O)c1 (stereo not shown) [NSC131753]
- IC50: 0.24 µM
